Measured values reported in patent publication US10653672B2, “Myogenesis promotor, muscle atrophy inhibitor, medical composition and TAZ activator” (National University Corporation Tokyo Medical and Dental …, priority 2014, dated 2020).
“And” between values parts separate entries of the source, which are not always exact repeats. Identical values can stand only once.

How the values were obtained:
cyclin D1 = assay: Quantitative real-time PCR, cyclin D1; assay type: cell-based, mouse; conditions: C2C12 cells, 10 μM; for Normarized mRNA abundance, CyclinD1: listed as IBS008738
Procedure: (1) Quantitative real-time PCR was performed with C2C12 cells immediately before the induction of muscle formation (0 h), and after culturing under differentiation condition in a culture medium added with IBS008738 or DMSO at a concentration of 10 μM for 24 hours (24 h) and 72 hours (72 h), respectively. […] The line and error bar indicate the average value and the standard error, **p<0.05, and ns refers to not significant.
(2) Evaluation was also performed under the same condition on the connective tissue growth factor (CTGF) and cyclin D1, as TAZ targets in epidermal cells.
The quantitative real-time PCR was performed with SYBER Green (Roche) and ABI7500 Realtime PCR system (Applied Biosystems).

C2C12 cells = assay: Immunofluorescence of endogenous MyoD and TAZ in C2C12 cells; assay type: cell-based, mouse; conditions: 10 μM
Procedure: Immunostaining of endogenous MyoD and TAZ in C2C12 cells was performed at three stages, i.e., after being cultured in a medium added with IBS008738 or DMSO at a concentration of 10 μM under growth condition for 24 hours, after being cultured under differentiation condition for 24 hours, and after being cultured under differentiation condition for 72 hours (see FIG. 7B). Both MyoD and TAZ existed at each of the three stages. After being cultured under growth condition for 24 hours, MyoD and TAZ were diffusely distributed in the nuclei (top), but formed dots under differentiation condition. After being cultured under differentiation condition for 24 hours, some cells strongly expressed TAZ, whereas other cells expressed more MyoD (middle). After being cultured under differentiation condition for 72 hours, in the single-nuclear cells, TAZ expression decreased while MyoD was still expressed. In the multi-nuclear cells, both TAZ and MyoD were expressed and colocalized in the nuclei (bottom). […] However, at 24 hours under differentiation condition, colocalization of TAZ and MyoD in the single-nuclear cells and generation of cells with two or three nuclei were promoted in the case with IBS008738 as compared with the case with DMSO (middle). […] The immunostaining and the immunofluorescence analysis were performed by the method described in Exp Cell Res 313:1484-1495. The line in the figures is 50 μm.

HCT116 cells = assay: Immunoblotting of EMT markers in HCT116 cells; assay type: cell-based, human
Procedure: (1) A431 cells, (epidermoid carcinoma), A549 cells (adenocarcinomic human alveolar basal epithelial cell) and HCT116 cells (human colon cancer) were treated with IBS008738 or DMSO, respectively, and evaluated by immunoblotting.
HEK293, A431, A549, HCT116, MCF7 and SW480 cells were cultured in Dulbecco's Modified Eagle Medium (DMEM) containing 10% fetal bovine serum (FBS), 10 mM HEPES-NaOH at pH 7.4, 100 U/ml penicillin and 100 mg/I streptomycin under 5% CO2 at 37° C.

SMILES: Cc1ccc(-n2cnc(/N=C/N3CCOCC3)c2C(=O)c2ccccc2)cc1 [exemplary compound 1]
- gene transcription of cyclin D1 compared with DMSO (cyclin D1; 24 h and 72 h): no significant difference
- Normarized mRNA abundance, CyclinD1 (cyclin D1; differentiation condition 24 h): 0.95 and 0.83 and 0.78
- Normarized mRNA abundance, CyclinD1 (cyclin D1; differentiation condition 72 h): 0.62 and 0.60 and 0.61
- colocalization of TAZ and MyoD in the single-nuclear cells and generation of cells with two or three nuclei (C2C12 cells; 24 hours under differentiation condition, compared with DMSO): promoted
- multinuclear cells (C2C12 cells; 72 hours under differentiation condition, compared with DMSO): remarkably increased
- MyoD and TAZ immunostaining compared with DMSO (C2C12 cells; growth condition 24 hours): no significant difference from the case with DMSO was not observed
- EMT markers (fibronectin, E-cadherin, N-cadherin and vimentin) compared with DMSO (HCT116 cells): no significant difference
